Measured values as given in patent US20080132505A1 (Glaxo Group Limited, priority 2004, published 2008).
Where two headings read alike, the source gives them in different places. Each block holds one compound with its values, some of them ahead of it.

Target: human cannabinoid CB2 receptor (Homo sapiens, UniProt P34972)
Experiment: Cannabinoid CB2 receptor agonist activity (yeast reporter assay, FDGlu fluorescence)
Type: cell-based
Settings: for Emax: read-out: efficacy value (Emax relative to HU210) at the cloned human cannabinoid CB2 receptor
Protocol: Determination of Cannabinoid CB2 Receptor Agonist Activity
The cannabinoid CB2 receptor agonist activity of the compounds of formula (I)-(IV) was determined in accordance with the following experimental method.
Yeast (Saccharomyces cerevisiae) cells expressing the human cannabinoid CB2 receptor were generated by integration of an expression cassette into the ura3 chromosomal locus of yeast strain MMY23. This cassette consisted of DNA sequence encoding the human CB2 receptor flanked by the yeast GPD promoter to the 5′ end of CB2 and a yeast transcriptional terminator sequence to the 3′ end of CB2. MMY23 expresses a yeast/mammalian chimeric G-protein alpha subunit in which the C-terminal 5 amino acids of Gpa1 are replaced with the C-terminal 5 amino acids of human Gαi3 (as described in Brown et al. (2000), Yeast 16:11-22). Cells were grown at 30° C. in liquid Synthetic Complete (SC) yeast media (Guthrie and Fink (1991), Methods in Enzymology, Vol. 194) lacking uracil, tryptophan, adenine and leucine to late logarithmic phase (approximately 6 OD600/ml).
Agonists were prepared as 10 mM stocks in DMSO. […] Agonist solutions in DMSO (1% final assay volume) were transferred into black, clear bottom, microtitre plates from NUNC (96- or 384-well). Cells were suspended at a density of 0.2 OD600/ml in SC media lacking histidine, uracil, tryptophan, adenine and leucine and supplemented with 10 mM 3-aminotriazole, 0.1M sodium phosphate pH 7.0, and […] fluorescein di-β-D-glucopyranoside (FDGlu). This mixture (50 ul per well for 384-well plates, 200 ul per well for 96-well plates) was added to agonist in the assay plates (Multidrop 384, Labsystems). After incubation at 30° C. for 24 hours, fluorescence resulting from degradation of FDGlu to fluorescein due to exoglucanase, an endogenous yeast enzyme produced during agonist-stimulated cell growth, was determined using a Spectrofluor microtitre plate reader (Tecan; excitation wavelength: 485 nm; emission wavelength: 535 nm). Fluorescence was plotted against compound concentration and iteratively curve fitted using a four parameter fit to generate a concentration effect value. Efficacy (Emax) was calculated from the equation
where Max[compound X] and Min[compound X] are the fitted maximum and minimum respectively from the concentration effect curve for compound X, and Max[HU210] and Min[HU210] are the fitted maximum and minimum respectively from the concentration effect curve for (6aR,10aR)-3-(1,1′-Dimethylheptyl)-6a,7,10,10a-tetrahydro-1-hydroxy-6,6-dimethyl-6H-dibenzo[b,d]pyran-9-methanol (HU210; available from Tocris). Equieffective molar ratio (EMR) values were calculated from the equation
Where EC50 [compound X] is the EC50 of compound X and EC50 [HU210] is the EC50 of HU210.

[1] = EC50 value at the cloned human cannabinoid CB2 receptor

Chain of human cannabinoid CB2 receptor (P34972 whole entry): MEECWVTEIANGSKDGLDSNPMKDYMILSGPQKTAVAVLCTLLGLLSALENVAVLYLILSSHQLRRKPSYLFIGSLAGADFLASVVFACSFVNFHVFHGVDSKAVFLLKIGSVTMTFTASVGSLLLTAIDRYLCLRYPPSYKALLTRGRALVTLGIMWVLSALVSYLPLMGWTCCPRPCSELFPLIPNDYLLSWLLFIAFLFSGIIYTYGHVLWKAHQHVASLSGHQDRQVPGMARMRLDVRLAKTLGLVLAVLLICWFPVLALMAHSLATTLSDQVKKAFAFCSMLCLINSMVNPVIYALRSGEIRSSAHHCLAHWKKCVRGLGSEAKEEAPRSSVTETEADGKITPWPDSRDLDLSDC

SMILES: O=C(NC1CCC1)c1cnc(Nc2ccc(Cl)c(Cl)c2)nc1C(F)(F)F [Example 30, 2-(3,4-Dichloro-phenylamino)-4-trifluoromethyl-pyrimidine-5-carboxylic acid cyclobutylamide]
- EC50 [1]: 300 to 1000 nM
- Emax: > 50%

SMILES: O=C(NCC1CCOCC1)c1cnc(Nc2cccc(F)c2)nc1C(F)(F)F [Example 31, 2-(3-Fluorophenylamino)-4-trifluoromethylpyrimidine-5-carboxylic acid (tetrahydropyran-4-ylmethyl)amide]
- EC50 [1]: 20 to 300 nM
- Emax: > 50%

SMILES: O=C(NCC1CCOCC1)c1cnc(Nc2cccc(Br)c2)nc1C(F)(F)F [Example 32, 2-(3-Bromophenylamino)-4-trifluoromethylpyrimidine-5-carboxylic acid (tetrahydropyran-4-ylmethyl)amide]
- EC50 [1]: 20 to 300 nM
- Emax: > 50%

SMILES: O=C(NCC1CCOCC1)c1cnc(Nc2cccc(Cl)c2Cl)nc1C(F)(F)F [Example 33, 2-(2,3-Dichlorophenylamino)-4-trifluoromethylpyrimidine-5-carboxylic acid (tetrahydropyran-4-ylmethyl)amide]
- EC50 [1]: 20 to 300 nM
- Emax: > 50%

SMILES: O=C(NCC1CCOCC1)c1cnc(Nc2cc(Cl)ccc2Cl)nc1C(F)(F)F [Example 35, 2-(2,5-Dichlorophenylamino)-4-trifluoromethylpyrimidine-5-carboxylic acid (tetrahydropyran-4-ylmethyl)-amide]
- EC50 [1]: 20 to 300 nM
- Emax: > 50%

SMILES: O=C(NCC1CCOCC1)c1cnc(Nc2cc(Cl)cc(Cl)c2)nc1C(F)(F)F [Example 36, 2-(3,5-Dichlorophenylamino)-4-trifluoromethylpyrimidine-5-carboxylic acid (tetrahydropyran-4-ylmethyl)-amide]
- EC50 [1]: 20 to 300 nM
- Emax: > 50%

SMILES: COc1cccc(Nc2ncc(C(=O)NCC3CCOCC3)c(C(F)(F)F)n2)c1 [Example 37, 2-(3-Methoxyphenylamino)-4-trifluoromethylpyrimidine-5-carboxylic acid (tetrahydropyran-4-ylmethyl)-amide]
- EC50 [1]: 20 to 300 nM
- Emax: > 50%

SMILES: O=C(NCC1CCCC1)c1cnc(Nc2cccc(F)c2)nc1C(F)(F)F [Example 38, 2-(3-Fluorophenylamino)-4-trifluoromethylpyrimidine-5-carboxylic acid cyclopentylmethyl-amide]
- EC50 [1]: 20 to 300 nM
- Emax: > 50%

SMILES: O=C(NCC1CCCC1)c1cnc(Nc2cccc(Br)c2)nc1C(F)(F)F [Example 39, 2-(3-Bromophenylamino)-4-trifluoromethylpyrimidine-5-carboxylic acid cyclopentylmethyl-amide]
- EC50 [1]: 20 to 300 nM
- Emax: > 50%

SMILES: O=C(NCC1CCCC1)c1cnc(Nc2cccc(Cl)c2Cl)nc1C(F)(F)F [Example 40, 2-(2,3-Dichlorophenylamino)-4-trifluoromethylpyrimidine-5-carboxylic acid cyclopentylmethyl-amide]
- EC50 [1]: 20 to 300 nM
- Emax: > 50%

SMILES: O=C(NCC1CCCC1)c1cnc(Nc2ccc(Cl)cc2Cl)nc1C(F)(F)F [Example 41, 2-(2,4-Dichlorophenylamino)-4-trifluoromethylpyrimidine-5-carboxylic acid cyclopentylmethyl-amide]
- EC50 [1]: 20 to 300 nM
- Emax: > 50%

SMILES: O=C(NCC1CCCC1)c1cnc(Nc2cc(Cl)ccc2Cl)nc1C(F)(F)F [Example 42, 2-(2,5-Dichlorophenylamino)-4-trifluoromethylpyrimidine-5-carboxylic acid cyclopentylmethyl-amide]
- EC50 [1]: 20 to 300 nM
- Emax: > 50%

SMILES: O=C(NCC1CCCC1)c1cnc(Nc2c(Cl)cccc2Cl)nc1C(F)(F)F [Example 43, 2-(2,6-Dichlorophenylamino)-4-trifluoromethylpyrimidine-5-carboxylic acid cyclopentylmethyl-amide]
- EC50 [1]: 20 to 300 nM
- Emax: > 50%

SMILES: O=C(NCC1CCCC1)c1cnc(Nc2ccc(Cl)c(Cl)c2)nc1C(F)(F)F [Example 44, 2-(3,4-Dichlorophenylamino)-4-trifluoromethylpyrimidine-5-carboxylic acid cyclopentylmethyl-amide]
- EC50 [1]: 20 to 300 nM
- Emax: > 50%

SMILES: O=C(NCC1CCCC1)c1cnc(Nc2cc(Cl)cc(Cl)c2)nc1C(F)(F)F [Example 45, 2-(3,5-Dichlorophenylamino)-4-trifluoromethylpyrimidine-5-carboxylic acid cyclopentylmethyl-amide]
- EC50 [1]: 20 to 300 nM
- Emax: > 50%

SMILES: COc1cccc(Nc2ncc(C(=O)NCC3CCCC3)c(C(F)(F)F)n2)c1 [Example 46, 2-(3-Methoxyphenylamino)-4-trifluoromethylpyrimidine-5-carboxylic acid cyclopentylmethyl-amide]
- EC50 [1]: 20 to 300 nM
- Emax: > 50%

- EC50 (read-out: EC50 value at the cloned human cannabinoid CB2 receptor): 20 to 300 nM
SMILES: O=C(NC1CCC1)c1cnc(Nc2cccc(Br)c2)nc1C(F)(F)F [Example 47, 2-(3-Bromophenylamino)-4-trifluoromethylpyrimidine-5-carboxylic acid cyclobutylamide]

SMILES: O=C(NC1CCC1)c1cnc(Nc2cccc(Cl)c2Cl)nc1C(F)(F)F [Example 48, 2-(2,3-Dichlorophenylamino)-4-trifluoromethylpyrimidine-5-carboxylic acid cyclobutylamide]
- EC50 [1]: 20 to 300 nM
- Emax: > 50%

SMILES: O=C(NC1CCC1)c1cnc(Nc2ccc(Cl)cc2Cl)nc1C(F)(F)F [Example 49, 2-(2,4-Dichlorophenylamino)-4-trifluoromethylpyrimidine-5-carboxylic acid cyclobutylamide]
- EC50 [1]: 20 to 300 nM
- Emax: > 50%

SMILES: O=C(NC1CCC1)c1cnc(Nc2cc(Cl)ccc2Cl)nc1C(F)(F)F [Example 50, 2-(2,5-Dichlorophenylamino)-4-trifluoromethylpyrimidine-5-carboxylic acid cyclobutylamide]
- EC50 [1]: 20 to 300 nM
- Emax: > 50%

SMILES: O=C(NC1CCC1)c1cnc(Nc2c(Cl)cccc2Cl)nc1C(F)(F)F [Example 51, 2-(2,6-Dichlorophenylamino)-4-trifluoromethylpyrimidine-5-carboxylic acid N-cyclobutylamide]
- EC50 [1]: 20 to 300 nM
- Emax: > 50%

SMILES: O=C(NC1CCC1)c1cnc(Nc2cc(Cl)cc(Cl)c2)nc1C(F)(F)F [Example 52, 2-(3,5-Dichlorophenylamino)-4-trifluoromethylpyrimidine-5-carboxylic acid cyclobutylamide]
- EC50 [1]: 20 to 300 nM
- Emax: > 50%

SMILES: COc1cccc(Nc2ncc(C(=O)NC3CCC3)c(C(F)(F)F)n2)c1 [Example 53, 2-(3-Methoxyphenylamino)-4-trifluoromethylpyrimidine-5-carboxylic acid cyclobutylamide]
- EC50 [1]: 20 to 300 nM
- Emax: > 50%

SMILES: O=C(NCC1CCC1)c1cnc(Nc2cccc(Cl)c2)nc1C(F)(F)F [Example 54, 2-(3-Chlorophenylamino)-4-trifluoromethylpyrimidine-5-carboxylic acid cyclobutylmethyl-amide]
- EC50 [1]: 20 to 300 nM
- Emax: > 50%

SMILES: O=C(NCC1CCOCC1)c1cnc(Nc2c(Cl)cccc2Cl)nc1C(F)(F)F [Example 55, 2-(2,6-Dichlorophenylamino)-4-trifluoromethyl-pyrimidine-5-carboxylic acid (tetrahydro-pyran-4-ylmethyl)-amide]
- EC50 [1]: 20 to 300 nM
- Emax: > 50%

SMILES: O=C(c1cnc(Nc2ccc(Cl)c(Cl)c2)nc1C(F)(F)F)N1CCOCC1 [Example 68, 1-[2-(3,4-Dichlorophenylamino)-4-trifluoromethylpyrimidin-5-yl]-1-(morpholin-4-yl)-methanone]
- EC50 [1]: 20 to 300 nM
- Emax: > 50%
